Laboratory results from ChEMBL document CHEMBL1201862, “PubChem BioAssay data set” (2004).
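Exposure lasted 48 hours, with cells grown in 96-well plates and compounds tested at five concentrations. GI50 = concentration required for 50% inhibition of growth.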 The source made the active and inactive calls. Cut-off read from the data, not from the text of the source: active = GI50 up to about 1.1 µM and inactive = higher.

Legend:
Experiment in all cases: NCI tumour cell line growth inhibition, 48 h
SNB-75 = test system: SNB-75
RXF 393 = test system: RXF 393
NCI/ADR-RES = test system: NCI/ADR-RES
DMS-114 = test system: DMS-114
MCF7 = test system: MCF7
A498 = test system: A498
SF-295 = test system: SF-295
HL-60 = test system: HL-60
SK-MEL-5 = test system: SK-MEL-5
XF498 = test system: XF498
SK-OV-3 = test system: SK-OV-3
KM-20L2 = test system: KM-20L2
HT-29 = test system: HT-29
DMS-273 = test system: DMS-273
NCI-H460 = test system: NCI-H460
IGROV-1 = test system: IGROV-1
SNB-78 = test system: SNB-78
LXFL 529 = test system: LXFL 529
HOP-18 = test system: HOP-18
RXF 631 = test system: RXF 631

Measured: GI50

CCOCC(=O)N(C)c1cccc2c3c(n(C)c12)CCCCC3
inactive: SNB-75 > 46.1 µM | RXF 393 > 89.7 µM | NCI/ADR-RES > 100 µM | DMS-114 > 100 µM | MCF7 > 100 µM | A498 > 100 µM | SF-295 > 100 µM | HL-60 > 100 µM | SK-MEL-5 > 100 µM | XF498 > 93.8 µM | SK-OV-3 > 100 µM | KM-20L2 > 100 µM | HT-29 > 100 µM | DMS-273 > 31.6 µM | NCI-H460 > 100 µM | IGROV-1 > 100 µM | SNB-78 > 100 µM

Cc1cc(OCC(O)CO)ccc1Cl (stereo unspecified)
inactive: SNB-75 87.3 µM | RXF 393 > 100 µM | LXFL 529 > 100 µM | DMS-114 > 100 µM | A498 > 100 µM | HOP-18 > 100 µM | SF-295 > 100 µM | HL-60 > 100 µM | SK-MEL-5 > 100 µM | RXF 631 > 100 µM | SK-OV-3 > 100 µM | KM-20L2 > 100 µM | HT-29 > 100 µM | DMS-273 > 100 µM | NCI-H460 > 100 µM | IGROV-1 > 100 µM

COc1ccc(-c2cc(O)c3cc(C)cnc3n2)cc1
inactive: RXF 393 7.94 µM | NCI/ADR-RES 3.73 µM | MCF7 2.72 µM | A498 7.29 µM | SK-OV-3 4.14 µM | HT-29 2.21 µM | IGROV-1 4.12 µM

N#CCCN(CCC#N)c1ccc(/C=C2\N=C(c3cc([N+](=O)[O-])ccc3Cl)N(NC(=O)CC(=O)Nc3ccccc3Cl)C2=O)cc1
inactive: RXF 393 > 100 µM | LXFL 529 > 100 µM | DMS-114 > 100 µM | SF-295 > 100 µM | SK-MEL-5 > 100 µM | XF498 > 100 µM | SK-OV-3 > 100 µM | KM-20L2 16.3 µM | DMS-273 > 100 µM | IGROV-1 > 100 µM | SNB-78 > 100 µM

CC/C(CC(=O)CCC(=O)Nc1ccc(C)c(C)c1)=N\NC(=O)c1cc2ccccc2cc1O
inactive: RXF 393 15.1 µM | LXFL 529 21.9 µM | DMS-114 32.9 µM | HOP-18 15.2 µM | SF-295 37.2 µM | HL-60 1.92 µM | RXF 631 69.5 µM | SK-OV-3 13.6 µM | KM-20L2 > 10 µM | HT-29 38.5 µM | NCI-H460 23.6 µM | IGROV-1 19 µM | SNB-78 48.5 µM

COC(=N)C(C)C
inactive: SNB-75 > 100 µM | RXF 393 > 100 µM | LXFL 529 > 100 µM | DMS-114 > 100 µM | SF-295 > 100 µM | HL-60 > 100 µM | SK-MEL-5 > 100 µM | SK-OV-3 > 100 µM | KM-20L2 > 100 µM | HT-29 > 100 µM | DMS-273 > 100 µM | NCI-H460 > 100 µM | IGROV-1 > 100 µM | SNB-78 > 100 µM

C=CCN1C(=O)/C(=C/c2ccccc2)N=C1SC1OC(COC(=O)c2ccccc2)C(OC(=O)c2ccccc2)C1OC(=O)c1ccccc1 (stereo unspecified)
inactive: SNB-75 > 100 µM | RXF 393 > 100 µM | NCI/ADR-RES > 100 µM | MCF7 15.1 µM | A498 49.8 µM | SF-295 > 100 µM | HL-60 32.8 µM | SK-MEL-5 > 100 µM | SK-OV-3 > 100 µM | NCI-H460 > 100 µM | IGROV-1 > 100 µM

COc1ccc(NC(=O)/C(=C/c2ccc(N(CCC#N)CCC#N)cc2)NC(=O)c2cc([N+](=O)[O-])ccc2Cl)cc1
inactive: RXF 393 > 100 µM | LXFL 529 8.89 µM | HOP-18 > 100 µM | SF-295 19.6 µM | SK-MEL-5 > 100 µM | XF498 > 100 µM | RXF 631 99.5 µM | SK-OV-3 > 100 µM | KM-20L2 36.2 µM | DMS-273 34.4 µM | IGROV-1 65.9 µM | SNB-78 > 100 µM
